Data from US6831079B1, “Vasopressin agonist formulation and process” (American Cyanamid Company, priority 1999, dated 2004).

Assays:
[1] = molecular target: Vasopressin V2 (Rattus norvegicus, UniProt Q00788); test: Vasopressin V2 agonist effects in normal conscious homozygous Brattleboro rats with central diabetes insipidus; type: in vivo; parameters: from tissue; host or cells: whole living homozygous Brattleboro rat; the receptor is the animal's own; details: Brattleboro (BB) rats, 10 mg/kg oral
Chain of Vasopressin V2 (Q00788 whole entry): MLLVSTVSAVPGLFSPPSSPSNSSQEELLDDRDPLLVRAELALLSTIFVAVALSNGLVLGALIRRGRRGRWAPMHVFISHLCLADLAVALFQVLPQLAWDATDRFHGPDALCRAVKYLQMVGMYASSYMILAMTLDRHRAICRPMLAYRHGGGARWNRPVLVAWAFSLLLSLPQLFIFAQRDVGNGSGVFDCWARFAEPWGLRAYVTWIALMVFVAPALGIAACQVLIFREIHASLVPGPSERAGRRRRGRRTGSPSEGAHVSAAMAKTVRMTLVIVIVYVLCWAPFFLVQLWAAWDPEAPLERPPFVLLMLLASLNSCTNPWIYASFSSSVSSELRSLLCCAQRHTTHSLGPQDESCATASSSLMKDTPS
Description: Vasopressin V2 Agonist Effects of Test Compounds in Normal Conscious Homozygous Brattleboro Rats with Central Diabetes Insipidus
Male or female homozygous Brattleboro rats (Harlan Sprague Dawley, Inc., Indianapolis, Ind.) of 250-350 g body weight were supplied with standard rodent diet (Purina Rodent Lab. Chow 5001) and water ad libitum. On the day of test, rats were placed individually into metabolic cages equipped with devices to separate the feces from the urine and containers for collection of urine. Test compound or reference agent was given at an oral dose of 1 to 10 mg/kg in a volume of 10 ml/kg. The vehicle used was 20% dimethylsulfoxide (DMSO) in 2.5% preboiled corn starch. During the test, rats were provided with water ad libitum. Urine was collected for six hours after dosing of the test compound. At the end of six hours, urine volume was measured. Urinary osmolality was determined using a Fiske One-Ten Osmometer (Fiske Associates, Norwood, Mass., 02062) or an Advanced CRYOMATIC Osmometer, Model 3C2 (Advanced Instruments, Norwood, Mass.). Determinations of Na^+, K^+ and Cl^− ion were carried out using ion specific electrodes in a Beckman SYNCHRON EL-ISE Electrolyte System analyzer. This animal model was mainly used for evaluation of potency and duration of action of the active compounds.

Structure (SMILES): Cn1ncnc1-c1ccc(C(=O)N2Cc3cccn3Cc3ccccc32)cc1 [Example 49, [4-(2-Methyl-2H-[1,2,4]triazol-3-yl)-phenyl]-(5H,11H-pyrrolo[2,1-c][1,4]-benzodiazepin-10-yl)-methanone]
- melting point: 155 to 158 °C
- Osmolality (% Increase) ([1]; change in osmolality as percent of control): 221%
- Urine Volume (% decrease) ([1]; vs. control, urine collected six hours): 74%
